Measurements reported in article PMC8900595 (Journal of medicinal chemistry, 2021).

Legend:
A/WSN/33 = assay: microbe, parasite or virus in culture; type: cell-based, influenza A virus
A549 cells = details: human

| SMILES | antiviral activity as described in SAR text (A/WSN/33) | selectivity index (A/WSN/33) | Cytotoxicity (MTT) CC10 (A549 cells) | other results |
| --- | --- | --- | --- | --- |
| CCN(c1ccc(F)cc1F)S(=O)(=O)c1cccc(Cl)c1Cl [compound 37, 2,3-Dichloro-N-(2,4-difluorophenyl)-N-ethylbenzenesulfonamide] | inactive |  |  |  |
| C#CCN(c1ccccc1C)S(=O)(=O)c1cc(Cl)ccc1Cl [compound 5, 2,5-Dichloro-N-(prop-2-yn-1-yl)-N-(o-tolyl)benzenesulfonamide] |  | >13 | >5 µM |  |
| CCN(c1ccc(CC(=O)N2CCN(C)CC2)cc1)S(=O)(=O)c1cc(Cl)ccc1Cl [compound 29, 2,5-Dichloro-N-ethyl-N-(4-(2-(4-methylpiperazin-1-yl)-2-oxoethyl)phenyl)benzenesulfonamide] |  |  | >25 µM |  |
| Cc1ccccc1NS(=O)(=O)c1cc(Cl)ccc1Cl [compound 2, 2,5-Dichloro-N-(o-tolyl)benzenesulfonamide] | substantially diminished activity |  | >5 µM |  |
| Cc1cc(Cl)ccc1N(C(F)F)S(=O)(=O)c1cc(Cl)ccc1Cl [compound 19, 2,5-Dichloro-N-(4-chloro-2-methylphenyl)-N-(difluoromethyl)benzenesulfonamide] | lower activity | >4 | >5 µM |  |
| CCN(c1ccccc1Cl)S(=O)(=O)c1cc(Cl)ccc1Cl [compound 8, 2,5-Dichloro-N-(2-chlorophenyl)-N-ethylbenzenesulfonamide] | less effective | >33 | >5 µM |  |
| C=CCN(c1ccccc1C)S(=O)(=O)c1cc(Cl)ccc1Cl [compound 4, N-Allyl-2,5-dichloro-N-(o-tolyl)benzenesulfonamide] |  | >42 | >5 µM |  |
| CCN(c1ccccc1)S(=O)(=O)c1cc(Cl)ccc1Cl [compound 7, 2,5-Dichloro-N-ethyl-N-phenylbenzenesulfonamide] |  | >6 | >5 µM | loss of activity on removing the 2-methyl group (A/WSN/33): greater than 10 × |
| CCN(c1ccccc1C#N)S(=O)(=O)c1cc(Cl)ccc1Cl [compound 9, 2,5-Dichloro-N-(2-cyanophenyl)-N-ethylbenzenesulfonamide] | less effective | >29 | >5 µM |  |
| CCN(c1ccc(F)cc1F)S(=O)(=O)c1c(Cl)cccc1Cl [compound 35, 2,6-Dichloro-N-(2,4-difluorophenyl)-N-ethylbenzenesulfonamide] | inactive |  |  |  |
| CCOC(=O)Cc1ccc(N(CC)S(=O)(=O)c2cc(Cl)ccc2Cl)cc1 [compound 24, Ethyl 2-(4-((2,5-Dichloro-N-ethylphenyl)sulfonamido)phenyl)-acetate] |  | >63 | >5 µM |  |
| CCN(c1ccc(F)cc1F)S(=O)(=O)c1ccccc1Cl [compound 31, 2-Chloro-N-(2,4-difluorophenyl)-N-ethylbenzenesulfonamide] | inactive |  |  |  |
| CCN(c1ccc(CCNC(C)=O)cc1)S(=O)(=O)c1cc(Cl)ccc1Cl [compound 28, N-(4-((2,5-Dichloro-N-ethylphenyl)sulfonamido)phenethyl)-acetamide] |  |  | >25 µM |  |
| Cc1ccccc1N(C(C)C)S(=O)(=O)c1cc(Cl)ccc1Cl [compound 6, 2,5-Dichloro-N-isopropyl-N-(o-tolyl)benzenesulfonamide] |  | >3 | >5 µM | loss of activity compared to compound 1 (A/WSN/33): greater than 10 fold |
| Cc1cc(Cl)ccc1N(CCF)S(=O)(=O)c1cc(Cl)ccc1Cl [compound 18, 2,5-Dichloro-N-(4-chloro-2-methylphenyl)-N-(2-fluoroethyl)-benzenesulfonamide] | lower activity | >9 | >5 µM | IC50 (A/WSN/33; Influenza A virus, WSN, A549, 24 h, read-out: viral replication IC50): 0.55 µM |
| CCN(c1ccc(F)cc1F)S(=O)(=O)c1ccc(Cl)c(Cl)c1 [compound 36, 3,4-Dichloro-N-(2,4-difluorophenyl)-N-ethylbenzenesulfonamide] | inactive |  |  |  |
| C#CCN(c1ccc(Cl)cc1C)S(=O)(=O)c1cc(Cl)ccc1Cl [compound 14, 2,5-Dichloro-N-(4-chloro-2-methylphenyl)-N-(prop-2-yn-1-yl)benzenesulfonamide] | generally more potent | >42 | >5 µM |  |
| CCN(c1ccc(Cl)cc1F)S(=O)(=O)c1cc(Cl)ccc1Cl [compound 20, 2,5-Dichloro-N-(4-chloro-2-fluorophenyl)-N-ethylbenzenesulfonamide] |  | >33 | >5 µM |  |
| Cc1ccccc1N(C)S(=O)(=O)c1cc(Cl)ccc1Cl [compound 3, 2,5-Dichloro-N-methyl-N-(o-tolyl)benzenesulfonamide] | substantially diminished activity |  | >5 µM |  |
| CCN(c1ccc(F)cc1F)S(=O)(=O)c1cc(Cl)cc(Cl)c1 [compound 34, 3,5-Dichloro-N-(2,4-difluorophenyl)-N-ethylbenzenesulfonamide] |  |  |  | less active than 1–55 (A/WSN/33): > 10 fold |
| CCN(c1c(F)cc(Cl)cc1F)S(=O)(=O)c1cc(Cl)ccc1Cl [compound 23, 2,5-Dichloro-N-(4-chloro-2,6-difluorophenyl)-N-ethylbenzenesulfonamide] | less active | >12 |  |  |
| CCN(c1ccc(F)cc1F)S(=O)(=O)c1cccc(Cl)c1 [compound 32, 3-Chloro-N-(2,4-difluorophenyl)-N-ethylbenzenesulfonamide] | maintained activity |  |  | lower level of activity than 21 (A/WSN/33): 10 fold |
| CCN(c1c(C)cc(Cl)cc1Cl)S(=O)(=O)c1cc(Cl)ccc1Cl [compound 22, 2,5-Dichloro-N-(2,4-dichloro-6-methylphenyl)-N-ethylbenzenesulfonamide] | less active | >13 | >5 µM |  |
| CCN(c1ccc(CCO)cc1)S(=O)(=O)c1cc(Cl)ccc1Cl [compound 26, 2,5-Dichloro-N-ethyl-N-(4-(2-hydroxyethyl)phenyl)-benzenesulfonamide] |  |  | >25 µM |  |
| CCN(c1ccc(F)cc1F)S(=O)(=O)c1ccc(Cl)cc1Cl [compound 33, 2,4-Dichloro-N-(2,4-difluorophenyl)-N-ethylbenzenesulfonamide] | inactive |  |  |  |
| CCN(c1ccc(F)cc1F)S(=O)(=O)c1ccccc1 [compound 30, N-(2,4-Difluorophenyl)-N-ethylbenzenesulfonamide] | inactive |  |  |  |
| CCN(c1ccc(CC(=O)O)cc1)S(=O)(=O)c1cc(Cl)ccc1Cl [compound 25, 2-(4-((2,5-Dichloro-N-ethylphenyl)sulfonamido)phenyl)acetic Acid] |  |  | >25 µM |  |
| CCN(c1ccc(CCN)cc1)S(=O)(=O)c1cc(Cl)ccc1Cl [compound 27, N-(4-(2-Aminoethyl)phenyl)-2,5-dichloro-N-ethylbenzenesulfonamide] |  |  | >25 µM |  |
